Test [1] concerns cerebral cortical neural cells. In words: MTT assay for cell viability after oxygen-glucose deprivation. The test is classed as cell-based, neonatal rats. On the set-up: dose or concentration left out as unconfirmed. The conditions noted are these: added at initiation of oxygen-glucose deprivation; 24 hours after injury; compared to untreated oxygen-glucose deprivation group, p < 0.05. In general terms: Tetrazolium assays rely on reduction of a dye to a coloured formazan, in cell work by metabolically active cells.

For test [2], the system named is cerebral cortical neural cells. In words: Lactate dehydrogenase (LDH) cytotoxicity assay after oxygen-glucose deprivation. Type of test: cell-based, neonatal rats. On the set-up: dose or concentration left out as unconfirmed. The following applies: added at initiation of oxygen-glucose deprivation; 24 hours after injury; compared to untreated oxygen-glucose deprivation group, p < 0.05.

In the case of Davunetide [NaP], in test [1], the MTT formation levels entry is listed as “significantly increased”. In test [2], the LDH release levels result was “significantly reduced”.

Source of the values: patent publication EP4818193A1, “COMPOSITION AND METHOD FOR TREATING NEONATAL HYPOXIC-ISCHEMIC ENCEPHALOPATHY” (Suzhou Glenkol Pharma Technology Co., Ltd., priority 2023, dated 2025).
